Results: patent US6875872B1, “Compounds” (AstraZeneca, priority 1993, dated 2005)

Columns and labels:
[1] = Racemization experiment in aqueous phosphate buffer pH 11 warmed at 37° C.; type: physicochemical; details: aqueous phosphate buffer solution pH=11, c=10^-5 M, 26 hours at 37° C.
[2] = Stability towards racemization at different pH values (aqueous buffer solutions, refrigerator, optical purity by chiral column chromatography); type: physicochemical; details: for racemization (stereochemical stability): after 16 days
Protocol: Stability Towards Racemization at Different pH Values
The stability of the optically pure compounds of the invention against racemization has been measured at low concentrations in a refrigerator in aqueous buffer solutions at pH 8, 9.3, 10 and 11.2. The stereochemical stability was measured by comparing the optical purity for the (−)-isomer of 5-methoxy-2-[[(4-methoxy-3,5-dimethyl-2-pyridinyl)-methyl]sulfinyl]-1H-benzimidazole in buffer solution immediately after dissolving and after several days. The measurement was performed by chromatography on an analytical chiral column.

Row | Structure (SMILES) | racemization [1] | racemization (stereochemical stability) ([2]; aqueous buffer solution pH 8, refrigerator) | racemization (stereochemical stability) ([2]; aqueous buffer solution pH 9.3, refrigerator) | racemization (stereochemical stability) ([2]; aqueous buffer solution pH 10, refrigerator) | racemization (stereochemical stability, optical purity immediately after dissolving vs after several days) ([2]; aqueous buffer solution pH 11.2, refrigerator, low concentration, after 21 days) | chemical degradation of the compound ([2]; aqueous buffer solutions pH 8, 9.3 and 10, refrigerator (compared with pH 11.2))
1 | COc1ccc2[nH]c([S+]([O-])Cc3ncc(C)c(OC)c3C)nc2c1.[Na+] (single isomer, unassigned; (+)) [(+)-5-methoxy-2-[[(4-methoxy-3,5-dimethyl-2-pyridinyl)methyl]sulfinyl]-1H-benzimidazole sodium salt] | without any racemization at all being observed |  |  |  |  | 
2 | COc1ccc2[nH]c([S+]([O-])Cc3ncc(C)c(OC)c3C)nc2c1 (single isomer, unassigned; (-)) [(−)-5-methoxy-2-[[(4-methoxy-3,5-dimethyl-2-pyridinyl)methyl]-sulfinyl]-1H-benzimidazole] |  | at none of these pH values a detectable racemization was obtained | at none of these pH values a detectable racemization was obtained | at none of these pH values a detectable racemization was obtained | no racemization | more apparent
